Measured values taken from patent US20130137084A1, “Single Nucleotide Polymorphism on Chromosome 15 That Predicts HCV Treatment Responses” (Roche Molecular Systems, Inc., priority 2011, published 2013).

Experiments:
[1] = tested on: chronic Hepatitis C genotype 1 infection; assay: Study NV21075 Phase 2 clinical study, virological response (undetectable HCV RNA) during the first 12 weeks of treatment; assay type: in vivo, human patients; conditions: for percentage of patients with undetectable HCV RNA levels at the end of 12 weeks of treatment: limit of detection 15 IU/mL, preliminary interim analysis
Source text: Study NV21075 was a randomized double-blinded multicenter Phase 2 clinical study to evaluate the efficacy and safety of danoprevir in combination with peginterferon alfa 2a and ribavirin (triple therapy combination) when dosed for twelve weeks in treatment-naïve patients with chronic Hepatitis C genotype 1 infection as compared to the currently approved combination of peginterferon alfa 2a and ribavirin (Standard of Care or SOC). Patients enrolled in Study NV21075 were randomized into one of four treatment groups (FIG. 1) (approximately 60 patients for Groups A-C, approximately 30 patients for Group D). In the response-guided treatment groups (as described below), patients with an extended RVR (eRVR, defined as undetectable HCV RNA from […]) stopped all therapy at Week 24.
Patients received double blinded experimental treatment with danoprevir at 300 mg TID (Group A), 600 mg BID (Group B), or 900 mg BID (Group C) and standard of care treatment (SOC, Pegasys 180 μg sc qw+Copegus 1000 mg (<75 kg) or 1200 mg (≧75 kg) po qd) for 12 weeks, followed by SOC for 12 weeks. Patients who achieve an RVR, defined as undetectable HCV RNA at week 4, and remain undetectable through week 22 (i.e. achieving eRVR) stopped all treatment at week 24. […] Treatment Group D: Patients received double blinded placebo treatment for 12 weeks, followed by SOC for 36 weeks for a total duration of 48 weeks.
For the interim analysis of NV21075, efficacy during the first 12 weeks of treatment was measured by the percentage of patients with virological response (undetectable HCV RNA as measured by the Roche Cobas® AmpliPrep/Cobas® Taqman® HCV Test v1.0 [limit of detection 15 IU/mL]). Patients were considered non-responders at a scheduled visit if they had missing data, which may have been due to an assessment that was missed or fell outside of the allowable window for that visit, or an early withdrawal from treatment with a missing follow-up assessment.

HCV = conditions: RBV monotherapy; cited from earlier work

Structure (SMILES)	percentage of patients with undetectable HCV RNA levels at the end of 12 weeks of treatment ([1]; Treatment Group A: danoprevir 300 mg TID plus SOC) [%]	percentage of patients with undetectable HCV RNA levels at the end of 12 weeks of treatment ([1]; Treatment Group B: danoprevir 600 mg BID plus SOC) [%]	percentage of patients with undetectable HCV RNA levels at the end of 12 weeks of treatment ([1]; Treatment Group C: danoprevir 900 mg BID plus SOC) [%]	change in mean HCV RNA levels ([1]; danoprevir plus SOC, within the first 2 to 4 weeks of treatment, remained lower than SOC up to Week 12)	effect on the replication of HCV (HCV)
CC(C)(C)OC(=O)N[C@H]1CCCCC/C=C\[C@@H]2C[C@@]2(C(=O)NS(=O)(=O)C2CC2)NC(=O)[C@@H]2C[C@@H](OC(=O)N3Cc4cccc(F)c4C3)CN2C1=O [Danoprevir, 4-Fluoro-1,3-dihydro-isoindole-2-carboxylic acid (Z)-(1S,4R,6S,14S,18R)-14-tert-butoxycarbonylamino-4-cyclopropanesulfonylaminocarbonyl-2,15-dioxo-3,16-diaza-tricyclo[14.3.0.0*4,6*]nonadec-7-en-18-yl ester]	88.1	89.2	92.0	precipitous decline	–
NC(=O)c1ncn([C@@H]2O[C@H](CO)[C@@H](O)[C@H]2O)n1 [ribavirin, 1-((2R,3R,4S,5R)-3,4-Dihydroxy-5-hydroxymethyl-tetrahydro-furan-2-yl)-1H-[1,2,4]triazole-3-carboxylic acid amide]	–	–	–	–	little or no effect
